The results in this text go back to paper PMC4340712, “Delineating the Biosynthesis of Gentamicin X2, the Common Precursor of the Gentamicin C Antibiotic Complex” (Chemistry & Biology, 2015).

For orientation: Km means the concentration of substrate that gives half-maximal velocity. A word on the kcat: it is the number of substrate molecules converted per active site and unit of time at saturation.

The target of data set [1] is T1, GenS2 (Micromonospora echinospora, UniProt Q70KD4).
T1 construct: gene gtmD; full length, N-terminal His6 tag (pET28a), initiator Met lost, tag kept; E. coli BL21(DE3)
T1 sequence (Q70KD4 2-418): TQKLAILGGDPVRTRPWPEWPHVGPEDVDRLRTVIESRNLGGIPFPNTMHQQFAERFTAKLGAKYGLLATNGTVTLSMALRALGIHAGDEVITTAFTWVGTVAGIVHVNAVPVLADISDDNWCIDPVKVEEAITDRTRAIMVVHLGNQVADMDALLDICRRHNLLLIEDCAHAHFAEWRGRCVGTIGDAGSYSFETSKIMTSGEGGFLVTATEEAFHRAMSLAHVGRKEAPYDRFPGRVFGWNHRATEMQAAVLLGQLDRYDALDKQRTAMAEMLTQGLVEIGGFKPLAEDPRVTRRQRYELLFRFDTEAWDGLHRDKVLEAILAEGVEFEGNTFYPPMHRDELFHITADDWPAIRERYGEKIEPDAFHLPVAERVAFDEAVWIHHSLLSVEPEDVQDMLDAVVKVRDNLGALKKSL
Kind of data set: LC-ESI-HRMS of […]″-deamination. The conditions noted are these: 2-oxoglutarate 1 mM as amino acceptor, Tris-HCl pH 7.5, 30°C; reverse reaction; GenS2 alone. It counts as biochemical.

For data set [2], the target named is T2, GenD2 (Micromonospora echinospora, UniProt Q70KD1).
T2 construct: gene gtmC; full length, N-terminal His6 tag (pET28a), initiator Met lost, tag kept; E. coli BL21(DE3); 38,533 Da (calc. 38,539)
T2 sequence (Q70KD1 entry or part of it): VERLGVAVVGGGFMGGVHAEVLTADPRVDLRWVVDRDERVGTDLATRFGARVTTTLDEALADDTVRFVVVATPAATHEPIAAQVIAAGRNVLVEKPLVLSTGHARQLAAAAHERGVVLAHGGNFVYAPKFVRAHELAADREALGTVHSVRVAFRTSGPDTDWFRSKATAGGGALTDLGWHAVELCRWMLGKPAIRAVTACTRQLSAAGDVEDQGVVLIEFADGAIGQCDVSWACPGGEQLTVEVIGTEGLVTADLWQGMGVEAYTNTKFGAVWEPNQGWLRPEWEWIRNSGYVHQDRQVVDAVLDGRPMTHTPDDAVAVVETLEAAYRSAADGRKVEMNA
Kind of data set: coupled reverse reaction from kanamycin B, LC-ESI-HRMS. The class given is biochemical. The conditions noted are these: NADH or NADPH 2.5 mM; ketone generated in situ by GenS2 with 2-oxoglutarate; Tris-HCl pH 7.5, 30°C.

Substrate in data set [3]: NC[C@H]1O[C@H](O[C@H]2[C@H](O)[C@@H](O[C@H]3O[C@H](CO)[C@@H](O)[C@H](N)[C@H]3O)[C@H](N)C[C@@H]2N)[C@H](N)[C@@H](O)[C@@H]1O
As to the kind of experiment: SAM-dependent N-methylation kinetics (details in supplement). To be noted: co-substrate SAM; 3″-N-methylation. The class given is biochemical, Micromonospora echinospora.

On to `NC[C@H]1O[C@H](O[C@H]2[C@H](O)[C@@H](O[C@H]3O[C@H](CO)[C@@H](O)[C@H](N)[C@H]3O)[C@H](N)C[C@@H]2N)[C@H](N)[C@@H](O)[C@@H]1O` [compound 11, kanamycin B], for which, in data set [1], the “LC-ESI-HRMS of 3′′-deamination” value is listed as “LC-ESI-HRMS analysis showed that GenS2 catalyzed low-level deamination of both compounds”.

Regarding `NC[C@H]1O[C@H](O[C@H]2[C@H](O)[C@@H](O[C@H]3O[C@H](CO)[C@@H](O)[C@H](N)[C@H]3O)[C@H](N)C[C@@H]2N)[C@H](N)C[C@@H]1O` [compound 12, tobramycin], the “LC-ESI-HRMS of 3′′-deamination” value in data set [1] was “LC-ESI-HRMS analysis showed that GenS2 catalyzed low-level deamination of both compounds”.

In the case of `NC[C@H]1O[C@H](O[C@H]2[C@H](O)[C@@H](O[C@H]3O[C@H](CO)[C@@H](O)C(=O)[C@H]3O)[C@H](N)C[C@@H]2N)[C@H](N)[C@@H](O)[C@@H]1O` [compound 13, 3″-deamino-3″-oxo-kanamycin B], in data set [2], the “coupled reverse reaction from kanamycin B, LC-ESI-HRMS” value is “in the presence of GenS2 and GenD2 (and either NADH or NADPH) essentially quantitative yields”.

B1: GenN (Micromonospora echinospora) (protein)
chain: IVGGSTIQPERVDAAALRQLGDAMRKVVGSADPTPLADLLSGTPVDPDELTREVGADGRQALLDSGMAVDDGTTFSSPLRGHQLHGVVVLSDPDVEEEVQHRWYVDPLWEADLLIRLMLRRGGARALDMGCGSGVLSLVLADRYESVLGVDVNPRAVALSRLNAALNGLTNVTFREGDMFEPAEGRFSRIVFNSPTNEEGNEFVDLLEAGEPILETFFRNVPRKLESGGIVEVNLAMNDYPGDPFRERLADWLGLTENGLRVQIFTSQRRATESGGEWKRGWLVVAPGPVGLTEVEWPYHDRYEEDPDALLDGTDRLLRG
notes: full length, N-terminal His6 tag (pET28a), initiator Met lost, tag kept; E. coli BL21(DE3)
Turning to B1, in data set [3], the Km was 34 ± 3.8 µM and the kcat came out at 1.93 ± 0.1 s⁻¹.
